Test results: patent EP0888055B1, “HERBICIDAL COMPOSITION AND METHOD OF WEED CONTROL” (Novartis AG, priority 1996, dated 1997)

Columns and labels:
Maize = assay: Pre-emergence test (Example B2), tolerance of useful plant; assay type: in vivo
Text: (§1) The test plants are sown in plastics pots in standard soil. Directly after sowing the test compounds are applied by spraying, separately or in admixture, in the form of an aqueous suspension of the test compounds (Formulation Example F8, c) and d)) or in the form of an emulsion concentrate (Formulation Example F1, d)) in 500 l of water/ha. The rates of application conform to the optimum concentrations ascertained under field conditions and greenhouse conditions. The test plants are then cultivated in the greenhouse under optimum conditions. After 34 days' (Tables B2 to B5) and 41 days' (Table B6) test duration, the test is evaluated (% action, 100 % = plants have died, 0 % = no phytotoxic action). From 61 to 80 % (especially from 81 to 100 %) phytotoxicity indicates good to very good herbicidal action in weeds; from 0 to 15 % (especially from 0 to 5 %) phytotoxicity indicates good to very good tolerance in useful plants.

Sorghum bic. = assay: Pre-emergence test (Example B2); assay type: in vivo, Sorghum bicolor; conditions: 1000 g active ingredient/ha, 41 days
Text: (§2) The expected herbicidal action E for a given combination of two herbicides can be calculated as follows (see COLBY, S.R., "Calculating synergistic and antagonistic response of herbicide combinations", Weeds 15, pages 20-22, 1967): E = X +(Y • (100 - X))/(100) [formula]
(§3) In the above formula: X = percentage growth inhibition in the case of treatment with the compound of formula A at a rate of application of p kg per hectare compared with the untreated control (= 0 %). Y = percentage herbicidal action in the case of treatment with one of the mixing partners at a rate of application of q kg per hectare compared with the untreated control. E = Expected herbicidal action (percentage herbicidal action compared with the untreated control) after treatment with the compounds of formulae A and the mixing partners at a rate of application of p + q kg of active ingredient per hectare.
The test plants are sown in plastics pots in standard soil. Directly after sowing the test compounds are applied by spraying, separately or in admixture, in the form of an aqueous suspension of the test compounds (Formulation Example F8, c) and d)) or in the form of an emulsion concentrate (Formulation Example F1, d)) in 500 l of water/ha. […] After 34 days' (Tables B2 to B5) and 41 days' (Table B6) test duration, the test is evaluated (% action, 100 % = plants have died, 0 % = no phytotoxic action). […]

Rottboellia = assay: Pre-emergence test (Example B2); assay type: in vivo; conditions: 125 g active ingredient/ha, 41 days
Text: as §2, §3, §1
(§4) Test plants: abutilon, bidens, euphorbia, ipomoea, sesbamia, xanthium, rottboellia, sida, Sorghum bicolor.

Ipomoea = assay: Pre-emergence test (Example B2); assay type: in vivo
Text: as §2, §3, §1, §4

Euphorbia = assay: Pre-emergence test (Example B2); assay type: in vivo
Text: as §2, §3, §1, §4

Sida = assay: Pre-emergence test (Example B2); assay type: in vivo
Text: as §2, §3, §1, §4

Abutilon = assay: Pre-emergence test (Example B2); assay type: in vivo
Text: as §2, §3, §1, §4

Echinochloa = assay: Post-emergence test (Example B1); assay type: in vivo; conditions: 24 days
Text: as §2, §3
(§5) The test plant seeds are grown to the 4- to 6-leaf stage under greenhouse conditions in plastics pots. The culture substrate used is a standard soil. At the 4- to 6-leaf stage the herbicides are applied separately and in admixture to the test plants. The test compounds are applied in the form of an aqueous suspension (Formulation Example F8, c)) in 500 l of water/ha. The rates of application conform to the optimum concentrations ascertained under field conditions and greenhouse conditions. Evaluation of the tests is carried out after 24 days. The following linear scale is used as a measure (% action): • 100 % = plants have died • 50 % = moderate action • 0 % = no phytotoxic action (as untreated control).
(§6) Test plants: brachiaria, cyperus, digitaria, echinochloa, panicum.

Brachiaria [1] = assay: Post-emergence test (Example B1); assay type: in vivo; conditions: 24 days
Text: as §2, §3, §5, §6

Digitaria = assay: Post-emergence test (Example B1); assay type: in vivo; conditions: 100 g active ingredient/ha, 24 days
Text: as §2, §3, §5, §6

Panicum = assay: Post-emergence test (Example B1); assay type: in vivo; conditions: 100 g active ingredient/ha, 24 days
Text: as §2, §3, §5, §6

Brachiaria [2] = assay: Pre-emergence test (Example B2); assay type: in vivo; conditions: 34 days
Text: as §2, §3, §1

Xanthium = assay: Pre-emergence test (Example B2); assay type: in vivo; conditions: 34 days
Text: as §2, §3, §1, §4

Sesbania = assay: Pre-emergence test (Example B2); assay type: in vivo; conditions: 250 g active ingredient/ha, 34 days
Text: as §2, §3, §1, §4

Bidens = assay: Pre-emergence test (Example B2); assay type: in vivo; conditions: 34 days
Text: as §2, §3, §1, §4

[3] = 250 g active ingredient/ha, 41 days
[4] = 500 g active ingredient/ha, 41 days
[5] = 1000 g active ingredient/ha, 41 days
[6] = 150 g active ingredient/ha, 34 days
[7] = 300 g active ingredient/ha, 34 days
[8] = 600 g active ingredient/ha, 34 days
[9] = 125 g active ingredient/ha, 34 days
[10] = 250 g active ingredient/ha, 34 days
[11] = 500 g active ingredient/ha, 34 days

COCC(C)N(C(=O)CCl)c1c(C)csc1C (stereo not shown) [Dime, dimethenamid]
Herbicidal activity, Useful plant: Maize (Maize; 125 g active ingredient/ha, 41 days): 0%
Herbicidal activity, Useful plant: Maize (Maize; [3]): 0%
Herbicidal activity, Useful plant: Maize (Maize; [4]): 0%
Herbicidal activity, Useful plant: Maize (Maize; [5]): 20%
Herbicidal activity, Weed: Sorghum bic. (Sorghum bic.): 80%
Herbicidal activity, Weed: Rottboellia (Rottboellia): 20%
Herbicidal activity, Weed: Ipomoea (Ipomoea; [5]): 0%
Herbicidal activity, Weed: Euphorbia (Euphorbia; [4]): 30%
Herbicidal activity, Weed: Sida (Sida; [3]): 40%
Herbicidal activity, Weed: Sida (Sida; [4]): 85%
Herbicidal activity, Weed: Sida (Sida; [5]): 95%
Herbicidal activity, Weed: Abutilon (Abutilon; [3]): 10%

O=C(O)CNCP(=O)(O)O [Gly, glyphosate]
Herbicidal activity, Weed: Echinochloa (Echinochloa; 200 g active ingredient/ha): 0%
Herbicidal activity, Weed: Echinochloa (Echinochloa; 400 g active ingredient/ha): 20%
Herbicidal activity, Weed: Brachiaria (Brachiaria [1]; 200 g active ingredient/ha): 60%
Herbicidal activity, Weed: Brachiaria (Brachiaria [1]; 300 g active ingredient/ha): 70%
Herbicidal activity, Weed: Brachiaria (Brachiaria [1]; 400 g active ingredient/ha): 70%
Herbicidal activity, Weed: Digitaria (Digitaria): 25%
Herbicidal activity, Weed: Panicum (Panicum): 70%

CCc1cccc(C)c1N(C(=O)CCl)[C@@H](C)COC [Met-S, aRS,1'S(-)-N-(1'-methyl-2'-methoxyethyl)-N-chloroacetyl-2-ethyl-6-methylaniline]
Herbicidal activity, Useful plant: Maize (Maize; [6]): 0%
Herbicidal activity, Useful plant: Maize (Maize; [7]): 10%
Herbicidal activity, Useful plant: Maize (Maize; [8]): 10%
Herbicidal activity, Weed: Brachiaria (Brachiaria [2]; 150 g active ingredient/ha): 20%
Herbicidal activity, Weed: Brachiaria (Brachiaria [2]; 300 g active ingredient/ha): 50%
Herbicidal activity, Weed: Xanthium (Xanthium; 300 g active ingredient/ha): 0%
Herbicidal activity, Weed: Xanthium (Xanthium; 600 g active ingredient/ha): 20%
Herbicidal activity, Weed: Euphorbia (Euphorbia; [6]): 0%
Herbicidal activity, Weed: Euphorbia (Euphorbia; [7]): 0%
Herbicidal activity, Weed: Euphorbia (Euphorbia; [8]): 0%
Herbicidal activity, Weed: Sida (Sida; [6]): 0%
Herbicidal activity, Weed: Sida (Sida; [7]): 40%
Herbicidal activity, Weed: Abutilon (Abutilon; [6]): 0%
Herbicidal activity, Weed: Abutilon (Abutilon; [7]): 10%

CCNc1nc(Cl)nc(NC(C)(C)C)n1 [Terb, terbuthylazine]
Herbicidal activity, Useful plant: Maize (Maize; [9]): 0%
Herbicidal activity, Useful plant: Maize (Maize; [10]): 0%
Herbicidal activity, Useful plant: Maize (Maize; [11]): 0%
Herbicidal activity, Weed: Sesbania (Sesbania): 80%
Herbicidal activity, Weed: Ipomoea (Ipomoea; [9]): 0%
Herbicidal activity, Weed: Ipomoea (Ipomoea; [11]): 95%
Herbicidal activity, Weed: Euphorbia (Euphorbia; [9]): 40%
Herbicidal activity, Weed: Euphorbia (Euphorbia; [10]): 70%
Herbicidal activity, Weed: Euphorbia (Euphorbia; [11]): 95%
Herbicidal activity, Weed: Bidens (Bidens; 125 g active ingredient/ha): 0%
Herbicidal activity, Weed: Bidens (Bidens; 250 g active ingredient/ha): 60%
Herbicidal activity, Weed: Abutilon (Abutilon; [10]): 30%
Herbicidal activity, Weed: Abutilon (Abutilon; [11]): 90%
